Source: patent US12480163B2, “Compositions and methods for identification assessment, prevention, and treatment of Ewing sarcoma using TP53 dependency biomarkers and modulators” (Dana-Farber Cancer Institute, Inc., priority 2018, dated 2025)
“Also recorded” adds a separate entry of the source.

What was measured:
TP53 knockout cells = test: CellTiter-Glo cell viability assay, TP53 knockout cells; assay type: cell-based
Procedure: Lentivirus was produced by transfecting HEK-293T cells with the pLentiV2 vector (Addgene plasmid 52961) and the packaging plasmids pCMV8.9 and pCMV-VSVG according to the FuGENER 6 (Roche) protocol. For lentiviral transduction, Ewing sarcoma cells were incubated with 2 ml of virus and 8 μg/ml of polybrene (Sigma-Aldrich). Cells were selected in puromycin (Sigma-Aldrich) 48 h after infection for single knockout experiments. For dual knockout experiments, PPM1D, USP7, and MDM4 sgRNA sequences were cloned into a LentiV2 vector with a blasticidin selection marker (Addgene plasmid 83480).
d. sgRNA Sequences sgRNAs were designed using the Broad Institute's sgRNA designer tool. The following sequences were used as control or to target the respective genes: control sgRNA, 5′-[…]-3′ (SEQ ID NO: 125); sgMDM2 2: 5′-[…]-3′ (SEQ ID NO: 126); sgMDM2 5: 5′-[…]-3′ (SEQ ID NO: 127); sgMDM4 4: 5′-[…]-3′ (SEQ ID NO: 128); sgMDM4 6: 5′-[…]-3′ (SEQ ID NO: 129); sgUSP7 1: 5′-[…]-3′ (SEQ ID NO: 130); sgUSP7 2: 5′-ACCATACCCAAATTATTC CG-3′ (SEQ ID NO: 131); sgPPMID 1: 5′-[…]-3′ (SEQ ID NO: 132); sgPPMID 2: 5′-[…]-3′ (SEQ ID NO: 133); sgTP53 1: 5′-[…]-3′ (SEQ ID NO: 134); sgTP53 2: 5′-[…]-3′ (SEQ ID NO: 135); sgTP53 4: 5′-[…]-3′ (SEQ ID NO: 136); and sgTP53 5: 5′-[…]-3′ (SEQ ID NO: 137). e. Protein Extraction and Immunoblotting
Cell viability was assessed using the CellTiter-Glo® Luminescent Cell Viability Assay (Promega). Viability assays were performed after Ewing sarcoma cell lines were infected with sgRNAs targeting TP53, MDM2, MDM4, PPM1D, or USP7 or treated with ATSP-7041, ATSP-7342, GSK2830371, P5091, XL-188, or vehicle control.

p53-MDM4 complex = biological target: T1, p53-MDM4 complex (Homo sapiens, UniProt O15151); test: MDM4 immunoprecipitation from TC32 cell lysates, p53 and MDM4 Western blot; assay type: binding; conditions: TC32 lysates after RG7388 pre-treatment, 20 μM compound
T1 construct: endogenous in cells; host or cells: TC32 Ewing sarcoma cells (TP53 wild-type), lysed in NP-40 buffer
T1 sequence (O15151 1-490): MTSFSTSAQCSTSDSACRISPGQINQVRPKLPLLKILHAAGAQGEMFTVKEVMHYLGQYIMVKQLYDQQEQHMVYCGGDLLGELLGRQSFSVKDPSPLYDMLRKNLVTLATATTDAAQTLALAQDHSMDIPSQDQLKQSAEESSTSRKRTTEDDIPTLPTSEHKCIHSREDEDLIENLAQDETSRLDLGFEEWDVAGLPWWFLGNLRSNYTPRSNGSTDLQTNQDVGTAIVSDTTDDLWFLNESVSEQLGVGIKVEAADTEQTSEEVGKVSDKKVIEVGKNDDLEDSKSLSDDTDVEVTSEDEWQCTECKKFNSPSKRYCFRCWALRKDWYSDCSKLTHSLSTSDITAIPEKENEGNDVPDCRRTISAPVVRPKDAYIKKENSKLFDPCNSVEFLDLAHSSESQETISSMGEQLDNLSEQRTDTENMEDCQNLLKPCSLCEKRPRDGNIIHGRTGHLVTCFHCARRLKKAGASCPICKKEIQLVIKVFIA
Procedure: g. Immunoprecipitation Experiments
Five million TC32 cells were treated with either 10 μM RG7388 or vehicle control for 4 h. Cells were lysed in buffer A (150 mM NaCl, 50 mM Tris, and 0.5% NP-40, pH 7.4) and combined with anti-MDM4 antibody (A300-287A; Bethyl Laboratories) in the presence of 20 μM RG7388, ATSP-7041, or vehicle control in a total volume of 1 ml, rotating at 4° C. for 16 h. Subsequently, 50 μl washed Protein AG beads (sc-2003; Santa Cruz) were added and the mixture was incubated for 1 h rotating at 4° C. Beads were washed three times in buffer A, and protein complexes were eluted by boiling in NuPage® LDS Sample Buffer (NP0007; Invitrogen) supplemented with DTT. Samples were analyzed by Western blot with antibodies against p53 DO-1 (sc-126; Santa Cruz) and MDM4 (A300-287A; Bethyl Laboratories).

TC32 xenograft tumors = test: TC32 Ewing sarcoma xenograft anti-tumor efficacy study; assay type: in vivo, mice; conditions: 30 mg/kg IV every other day for 20 d (10 doses) vs vehicle
Procedure: j. Ewing Sarcoma Xenograft Studies
For anti-tumor efficacy studies, tumor xenografts were established in 15 nude female mice by implanting three million TC32 cells into the right flank. Animals were randomized to either 20 d of treatment with 30 mg/kg q.o.d. IV ATSP-7041 (n=8) or vehicle (n=7) for a total of 10 doses. Treatment was started when tumors reached 100-200 mm3. Tumor volumes were measured with calipers twice a week. For PDX studies, tumor fragments were implanted into the right flank of nude female mice by minor surgery. After tumor engraftment, studies were performed as described for TC32 xenograft studies.
For in vivo studies, ATSP-7041 was prepared using the following protocol: mPEG-DSPE (Nanocs) was dissolved in chloroform and dried by a rotary evaporator. ATSP-7041 was dissolved in 1 M NaOH and diluted 100-fold in 10 mM histidine-buffered saline to a final concentration of 3 mg/ml. This mixture was added to the dried lipid film to a final mPEG-DSPE concentration of 50 mg/ml and final pH 7. The film was rehydrated by brief sonication and heating in a 50° C. water bath. The mixture was then subjected to five freeze-thaw cycles in liquid nitrogen and 40° C. water, respectively, and the solution passed 10 times through an Avanti Mini-Extruder Set (Avanti Polar Lipids) equipped with a 800-nm filter (Whatman).

CC(=O)N[C@@H](CC(C)C)C(=O)N[C@H](C(=O)N[C@@H](Cc1ccccc1)C(=O)N[C@]1(C)CCCCCCC=CCCC[C@@](C)(C(=O)N[C@@H](CO)C(=O)N[C@@H](C)C(=O)N[C@@H](C)C(N)=O)NC(=O)[C@H](CC2CCC2)NC(=O)[C@H](CCC(N)=O)NC(=O)[C@H](C)NC(=O)[C@H](Cc2c[nH]c3ccccc23)NC(=O)[C@H](Cc2ccc(O)cc2)NC(=O)[C@H](CCC(=O)O)NC1=O)[C@@H](C)O [ATSP-7041, Ac-Leu17-Thr-Phe-cyclo(R8-Glu-Tyr-Trp-Ala-Gln-Cba-S5)-Ser-Ala-Ala30-NH2]
effect of TP53 knockout on the cytotoxic effect of the compound (viability) (TP53 knockout cells): fully rescues the cytotoxic effect | disruption of p53-MDM4 complex (MDM4 immunoprecipitation) (p53-MDM4 complex): partial disruption of p53-MDM4 complex; also recorded: decreased the level of p53-MDM4 interaction | tumor growth (normalized tumor volume) (TC32 xenograft tumors): significantly suppressed tumor growth
